# According to ChEMBL document CHEMBL5303573, “Mapping human microbiome drug metabolism by gut bacteria and their genes” (Nature, 2019):
# Tests used:
# Assay type in all cases: ADME
# Conditions in all cases: 2 µM
# Flavodoxin = target: T1, Flavodoxin (Collinsella aerofaciens, UniProt A4ED08); assay: (§1) The drug is tested on Collinsella aerofaciens strain: ATCC25986 for biotransformation. The drug concentrations were measured before and after a 12-h incubation by liquid-chromatography-coupled mass spectrometry (LC–MS); set-up: dose 2 uM
# T1 sequence (A4ED08 whole entry): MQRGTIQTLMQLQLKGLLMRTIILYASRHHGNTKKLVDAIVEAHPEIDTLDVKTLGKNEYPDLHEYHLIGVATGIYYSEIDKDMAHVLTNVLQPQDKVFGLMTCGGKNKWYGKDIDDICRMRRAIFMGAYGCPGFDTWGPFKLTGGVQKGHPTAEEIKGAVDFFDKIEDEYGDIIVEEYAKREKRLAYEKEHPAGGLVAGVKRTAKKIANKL
# GDSL-like protein [1] = target: T2, GDSL-like protein (Collinsella aerofaciens, UniProt A4E7D0); assay: as §1; set-up: dose 2 uM
# T2 sequence (A4E7D0 whole entry): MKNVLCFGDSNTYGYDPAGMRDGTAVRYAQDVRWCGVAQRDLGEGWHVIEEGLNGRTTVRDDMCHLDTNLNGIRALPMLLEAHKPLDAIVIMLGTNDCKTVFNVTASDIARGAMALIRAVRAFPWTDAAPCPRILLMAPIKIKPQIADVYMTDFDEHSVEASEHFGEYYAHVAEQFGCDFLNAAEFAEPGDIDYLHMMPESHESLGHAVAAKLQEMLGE
# [2] = target: T3, Pyridine nucleotide-disulfide oxidoreductase (Collinsella aerofaciens, UniProt A4EBM5); assay: as §1; set-up: dose 2 uM
# T3 sequence (A4EBM5 whole entry): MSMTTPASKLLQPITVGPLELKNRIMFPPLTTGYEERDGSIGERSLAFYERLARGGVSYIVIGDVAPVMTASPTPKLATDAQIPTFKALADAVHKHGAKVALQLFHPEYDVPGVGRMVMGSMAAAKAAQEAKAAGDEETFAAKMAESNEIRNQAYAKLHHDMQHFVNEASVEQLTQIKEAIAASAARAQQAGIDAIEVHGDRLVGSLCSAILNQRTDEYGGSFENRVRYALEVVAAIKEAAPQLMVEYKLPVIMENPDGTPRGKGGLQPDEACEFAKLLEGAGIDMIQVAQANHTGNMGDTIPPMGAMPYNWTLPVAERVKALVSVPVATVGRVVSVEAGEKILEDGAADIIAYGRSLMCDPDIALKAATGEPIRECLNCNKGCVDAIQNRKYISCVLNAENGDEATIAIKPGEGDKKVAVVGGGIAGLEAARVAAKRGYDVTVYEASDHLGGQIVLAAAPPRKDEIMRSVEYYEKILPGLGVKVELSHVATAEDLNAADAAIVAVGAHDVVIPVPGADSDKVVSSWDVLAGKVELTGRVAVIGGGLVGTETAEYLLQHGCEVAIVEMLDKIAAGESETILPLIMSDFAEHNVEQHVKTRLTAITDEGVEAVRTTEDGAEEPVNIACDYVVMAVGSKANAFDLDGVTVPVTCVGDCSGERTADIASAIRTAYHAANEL
# GDSL-like protein [3] = target: T4, GDSL-like protein (Collinsella aerofaciens, UniProt A4E8S4); assay: as §1; set-up: dose 2 uM
# T4 sequence (A4E8S4 whole entry): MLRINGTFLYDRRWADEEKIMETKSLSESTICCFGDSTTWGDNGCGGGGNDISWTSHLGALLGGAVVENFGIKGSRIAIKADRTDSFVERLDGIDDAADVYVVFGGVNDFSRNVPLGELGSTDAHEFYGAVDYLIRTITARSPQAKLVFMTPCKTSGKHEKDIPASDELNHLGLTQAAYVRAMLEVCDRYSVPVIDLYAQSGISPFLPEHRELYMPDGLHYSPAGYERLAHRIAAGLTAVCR
# Diguanylate cyclase = target: T5, Diguanylate cyclase (Collinsella aerofaciens, UniProt A4EB91); assay: as §1; set-up: dose 2 uM
# T5 sequence (A4EB91 whole entry): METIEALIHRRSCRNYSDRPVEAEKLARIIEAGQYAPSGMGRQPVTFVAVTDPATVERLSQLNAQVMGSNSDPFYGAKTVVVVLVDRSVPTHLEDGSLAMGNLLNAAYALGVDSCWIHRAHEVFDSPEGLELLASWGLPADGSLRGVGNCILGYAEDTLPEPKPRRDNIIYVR
# Endoglucanase E (EGE) = target: T6, Endoglucanase E (EGE) (Bacteroides thetaiotaomicron, UniProt Q8AAL9); assay: The drug is tested on Bacteroides thetaiotaomicron strain: VPI-5482 for biotransformation. The drug concentrations were measured before and after a 12-h incubation by liquid-chromatography-coupled mass spectrometry (LC–MS); set-up: dose 2 uM
# T6 sequence (Q8AAL9 whole entry): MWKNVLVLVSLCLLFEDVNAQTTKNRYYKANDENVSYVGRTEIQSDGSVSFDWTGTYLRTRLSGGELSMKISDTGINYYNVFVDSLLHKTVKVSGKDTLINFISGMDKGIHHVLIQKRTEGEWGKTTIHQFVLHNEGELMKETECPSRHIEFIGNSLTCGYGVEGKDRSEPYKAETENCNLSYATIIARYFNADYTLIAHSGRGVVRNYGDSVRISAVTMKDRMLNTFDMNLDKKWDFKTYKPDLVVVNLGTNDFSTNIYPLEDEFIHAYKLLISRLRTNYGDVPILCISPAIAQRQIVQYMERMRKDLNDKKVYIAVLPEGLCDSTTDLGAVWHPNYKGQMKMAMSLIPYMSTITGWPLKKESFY
# [4] = (§2) The drug is tested on the gut metagenome community of MV17 with ENA study accession number: PRJEB31790 and ENA sample accession number: SAMEA5537498 for biotransformation. The drug concentrations were measured over 9 timepoints collected between 0 and 24 hours of incubation by liquid-chromatography-coupled mass spectrometry (LC–MS); set-up: dose 2 uM, timepoint 0, 1, 2, 4, 6, 8, 12, 18, 24 hours
# [5] = as §2, with “MV22” for “MV17”, “SAMEA5537503” for “SAMEA5537498”; set-up: dose 2 uM, timepoint 0, 1, 2, 4, 6, 8, 12, 18, 24 hours
# [6] = as §2, with “MV03” for “MV17”, “SAMEA5537484” for “SAMEA5537498”; set-up: dose 2 uM, timepoint 0, 1, 2, 4, 6, 8, 12, 18, 24 hours
# [7] = as §2, with “MV12” for “MV17”, “SAMEA5537493” for “SAMEA5537498”; set-up: dose 2 uM, timepoint 0, 1, 2, 4, 6, 8, 12, 18, 24 hours
# [8] = as §2, with “MV02” for “MV17”, “SAMEA5537483” for “SAMEA5537498”; set-up: dose 2 uM, timepoint 0, 1, 2, 4, 6, 8, 12, 18, 24 hours
# [9] = as §2, with “MV15” for “MV17”, “SAMEA5537496” for “SAMEA5537498”; set-up: dose 2 uM, timepoint 0, 1, 2, 4, 6, 8, 12, 18, 24 hours
# [10] = as §2, with “MV08” for “MV17”, “SAMEA5537489” for “SAMEA5537498”; set-up: dose 2 uM, timepoint 0, 1, 2, 4, 6, 8, 12, 18, 24 hours
# [11] = as §2, with “MV19” for “MV17”, “SAMEA5537500” for “SAMEA5537498”; set-up: dose 2 uM, timepoint 0, 1, 2, 4, 6, 8, 12, 18, 24 hours
# [12] = as §2, with “MV01” for “MV17”, “SAMEA5537482” for “SAMEA5537498”; set-up: dose 2 uM, timepoint 0, 1, 2, 4, 6, 8, 12, 18, 24 hours
SMILES,Bacterial Biotransformation (Flavodoxin),Bacterial Biotransformation (GDSL-like protein [1]),Bacterial Biotransformation [2],Bacterial Biotransformation (GDSL-like protein [3]),Bacterial Biotransformation (Diguanylate cyclase),Bacterial Biotransformation (Endoglucanase E (EGE)),Bacterial Biotransformation [4],Bacterial Biotransformation [5],Bacterial Biotransformation [6],Bacterial Biotransformation [7],Bacterial Biotransformation [8],Bacterial Biotransformation [9],Bacterial Biotransformation [10],Bacterial Biotransformation [11],Bacterial Biotransformation [12]
CC(=O)OCC(=O)[C@@]1(OC(C)=O)[C@@H](C)C[C@H]2[C@@H]3C[C@H](F)C4=CC(=O)C=C[C@]4(C)[C@@]3(F)[C@@H](O)C[C@@]21C [DIFLORASONE DIACETATE],Compound NOT metabolized,Compound NOT metabolized,Compound NOT metabolized,Compound metabolized,Compound NOT metabolized,Compound NOT metabolized,,,,,,,,,
COc1ccc([C@@H]2Sc3ccccc3N(CCN(C)C)C(=O)[C@@H]2OC(C)=O)cc1 [DILTIAZEM],Compound NOT metabolized,Compound NOT metabolized,Compound NOT metabolized,Compound NOT metabolized,Compound NOT metabolized,Compound NOT metabolized,Compound NOT metabolized,Compound NOT metabolized,Compound NOT metabolized,Compound NOT metabolized,Compound NOT metabolized,Compound NOT metabolized,Compound NOT metabolized,Compound NOT metabolized,Compound NOT metabolized

# More lines, now with the values ahead:
Bacterial Biotransformation (Flavodoxin),Bacterial Biotransformation (GDSL-like protein [1]),Bacterial Biotransformation [2],Bacterial Biotransformation (GDSL-like protein [3]),Bacterial Biotransformation (Diguanylate cyclase),Bacterial Biotransformation (Endoglucanase E (EGE)),Bacterial Biotransformation [4],Bacterial Biotransformation [5],Bacterial Biotransformation [6],Bacterial Biotransformation [7],Bacterial Biotransformation [8],Bacterial Biotransformation [9],Bacterial Biotransformation [10],Bacterial Biotransformation [11],Bacterial Biotransformation [12],SMILES
Compound NOT metabolized,Compound NOT metabolized,Compound NOT metabolized,Compound metabolized,Compound NOT metabolized,Compound NOT metabolized,Compound metabolized,Compound metabolized,Compound metabolized,Compound metabolized,Compound metabolized,Compound metabolized,Compound metabolized,Compound NOT metabolized,Compound metabolized,CC(=O)OCC(CCn1cnc2cnc(N)nc21)COC(C)=O [FAMCICLOVIR]
Compound NOT metabolized,Compound NOT metabolized,Compound NOT metabolized,Compound NOT metabolized,Compound NOT metabolized,Compound NOT metabolized,,,,,,,,,,C#C[C@]1(O)CC[C@H]2[C@@H]3CCC4=CC(=O)CC[C@@H]4[C@H]3CC[C@@]21CC [LEVONORGESTREL]
Compound NOT metabolized,Compound NOT metabolized,Compound NOT metabolized,Compound NOT metabolized,Compound NOT metabolized,Compound NOT metabolized,Compound metabolized,Compound metabolized,Compound metabolized,Compound metabolized,Compound metabolized,Compound metabolized,Compound metabolized,Compound NOT metabolized,Compound metabolized,C#C[C@]1(OC(C)=O)CC[C@H]2[C@@H]3CCC4=CC(=O)CC[C@@H]4[C@H]3CC[C@@]21C [NORETHINDRONE ACETATE]
